Where two headings read alike, the source gives them in different places.
Experiments:
[1] = Pharmacokinetics study in rats (plasma and brain); format: in vivo, Sprague−Dawley rats; settings: rat, 10 mg/kg IP
Protocol: Given their adequate in vitro stability profiles, we next evaluated the in vivo pharmacokinetic profiles of 14, 15, 17, and 18 in rats. Sprague−Dawley rats were dosed with 5 mg/kg (14, 15, 17) or 10 mg/kg (18), i.p., and plasma and brain levels of each drug were measured 0−6 h postdose.
All animal experiments were performed following the protocols evaluated and approved by the Animal Care and Use Committee at Johns Hopkins University (Ethics Approval Number: RA24M403). Pharmacokinetic studies in Sprague−Dawley (SD) rats were conducted according to protocols approved. SD rats obtained from Harlan were maintained on a 12 h light−dark cycle with ad libitum access to food and water. Test compound was administered via i.p. injection at a dose of 10 mg/kg (100% saline vehicle, 10 mL/kg volume). The rats were sacrificed at specified time points (0.25, 0.5 h, 1, 2, 4, and 6 h) post drug administration. For the collection of plasma and brain tissue, animals were euthanized with CO2, and blood samples were collected in heparinized microtubes by cardiac puncture. Brains were dissected and immediately flash-frozen (−80 °C). Blood samples were spun at 2000g for 15 min, and plasma was removed and stored at −80 °C until analysis (as described below).
Quantitation of triazole analogs 14, 15, 17, and 18 was performed using liquid chromatography with tandem mass spectrometry (LC/MS-MS) methods. Briefly, calibration standards were prepared using respective tissue (naïve plasma and brain) with additions of the test compounds. For quantifying the test compounds in the pharmacokinetic samples, plasma samples (20 μL) were processed using a single liquid extraction method by addition of 100 μL of acetonitrile containing internal standard (losartan: 0.5 μM), followed by vortex-mixing for 30 s and then centrifugation at 10,000g for 10 min at 4 °C. Brain tissues were diluted 1:5 w/v with acetonitrile containing losartan (0.5 μm) and homogenized, followed by vortex-mixing and centrifugation at 10,000g for 10 min at 4 °C. A 50 μL aliquot of the supernatant was diluted with 50 μL of water and transferred to 250 μL polypropylene autosampler vials sealed with Teflon caps. Two μL of the sample was injected into the LC/MS/MS system for analysis. Chromatographic analysis was performed using an Accela ultra high-performance system consisting of an analytical pump and an autosampler coupled with a TSQ Vantage mass spectrometer. […] The mobile phase consisted of 0.1% formic acid in acetonitrile and 0.1% formic acid in water with gradient elution, starting with 10% organic phase (from 0 to 1 min) linearly increasing to 95% (from 1 to 2 min), and re-equilibrating to 10% by 3 min. The total run time for each analyte was 3.5 min. Pumps were operated at a flow rate of 0.4 mL/min. […] Plasma concentrations (nmol/mL) as well as brain tissue concentrations (nmol/g) were determined and plots of mean plasma concentration versus time were constructed. Noncompartmental analysis modules in Phoenix WinNonlin version 7.0 (Certara USA, Inc., Princeton, NJ) were used to quantify exposures (AUC0−t) and half-life (t1/2).

D1 = molecular target: T1, D1 (Homo sapiens, UniProt P21728); assay: PDSP primary screen and secondary assay, D1; format: binding
T1 construct: Psychoactive Drug Screening Program (PDSP)
T1 sequence (P21728 whole entry): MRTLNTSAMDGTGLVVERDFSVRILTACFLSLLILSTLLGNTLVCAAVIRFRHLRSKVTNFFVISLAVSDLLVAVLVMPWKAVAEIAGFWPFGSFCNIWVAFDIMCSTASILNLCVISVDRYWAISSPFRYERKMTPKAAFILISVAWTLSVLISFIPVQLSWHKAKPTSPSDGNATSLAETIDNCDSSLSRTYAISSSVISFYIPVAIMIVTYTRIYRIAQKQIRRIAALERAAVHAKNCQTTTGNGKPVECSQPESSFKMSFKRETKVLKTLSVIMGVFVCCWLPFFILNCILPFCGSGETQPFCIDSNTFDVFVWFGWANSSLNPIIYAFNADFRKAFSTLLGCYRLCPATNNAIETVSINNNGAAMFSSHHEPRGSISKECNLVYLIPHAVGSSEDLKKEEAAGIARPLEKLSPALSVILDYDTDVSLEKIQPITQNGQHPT
Description: (§1) Receptor Primary Secondary Primary Secondary Primary Secondary Primary Secondary screen assay screen assay screen assay screen assay […]
(§2) inhibition in primary assessment.

D5 = molecular target: T2, D5 (Homo sapiens, UniProt P21918); assay: PDSP primary screen, D5; format: binding; settings: 10 µM compound
T2 construct: Psychoactive Drug Screening Program (PDSP)
T2 sequence (P21918 whole entry): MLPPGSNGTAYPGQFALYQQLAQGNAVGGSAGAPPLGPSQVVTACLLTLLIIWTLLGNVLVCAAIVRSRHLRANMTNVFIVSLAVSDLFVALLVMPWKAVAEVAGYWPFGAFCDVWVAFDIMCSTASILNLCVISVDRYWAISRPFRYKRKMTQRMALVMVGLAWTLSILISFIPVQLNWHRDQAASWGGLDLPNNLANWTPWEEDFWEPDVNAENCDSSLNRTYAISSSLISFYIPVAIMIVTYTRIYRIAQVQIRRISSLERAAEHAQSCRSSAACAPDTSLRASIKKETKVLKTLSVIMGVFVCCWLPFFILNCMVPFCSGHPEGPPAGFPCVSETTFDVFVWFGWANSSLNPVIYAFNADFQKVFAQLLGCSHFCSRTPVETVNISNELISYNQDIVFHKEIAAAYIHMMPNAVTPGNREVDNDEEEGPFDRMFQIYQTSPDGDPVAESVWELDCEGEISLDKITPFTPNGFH
Description: as §1, §2

human D2LR = human D2LR (Homo sapiens, UniProt P14416); assay: biochemical
Chain of human D2LR (P14416 whole entry): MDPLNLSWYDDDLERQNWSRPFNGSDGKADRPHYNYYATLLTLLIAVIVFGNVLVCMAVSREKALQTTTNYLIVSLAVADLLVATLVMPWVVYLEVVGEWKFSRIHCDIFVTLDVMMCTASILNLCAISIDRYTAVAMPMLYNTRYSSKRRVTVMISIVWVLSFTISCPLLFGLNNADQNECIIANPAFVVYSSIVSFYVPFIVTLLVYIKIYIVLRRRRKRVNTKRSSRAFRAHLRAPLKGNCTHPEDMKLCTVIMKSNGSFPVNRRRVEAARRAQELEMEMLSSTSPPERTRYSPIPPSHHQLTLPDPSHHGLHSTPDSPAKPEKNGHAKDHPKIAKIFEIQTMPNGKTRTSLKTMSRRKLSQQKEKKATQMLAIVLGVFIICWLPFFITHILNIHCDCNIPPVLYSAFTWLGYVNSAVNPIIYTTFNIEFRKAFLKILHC

human D3R = human D3R (Homo sapiens, UniProt P35462); assay: biochemical
Chain of human D3R (P35462 whole entry, canonical isoform): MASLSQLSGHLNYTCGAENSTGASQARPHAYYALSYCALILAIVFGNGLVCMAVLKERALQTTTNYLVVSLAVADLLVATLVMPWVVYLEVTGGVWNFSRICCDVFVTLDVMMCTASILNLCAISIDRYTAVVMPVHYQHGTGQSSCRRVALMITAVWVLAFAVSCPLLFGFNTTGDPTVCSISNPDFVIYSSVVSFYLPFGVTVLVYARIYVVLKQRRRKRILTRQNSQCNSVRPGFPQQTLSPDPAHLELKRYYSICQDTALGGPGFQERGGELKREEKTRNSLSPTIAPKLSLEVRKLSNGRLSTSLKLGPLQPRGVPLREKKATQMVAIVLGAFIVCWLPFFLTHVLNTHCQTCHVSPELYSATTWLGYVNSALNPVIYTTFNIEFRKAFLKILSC

human D2R long isoform = human D2R long isoform (Homo sapiens, UniProt P14416); assay: DiscoverX PathHunter β-arrestin recruitment assay, D2R
Chain of human D2R long isoform (P14416 whole entry, canonical isoform): as the sequence (P14416 whole entry) above

human D4R [2] = molecular target: T3, human D4R (Homo sapiens, UniProt P21917); assay: DiscoverX PathHunter β-arrestin recruitment assay, D4R
T3 sequence (P21917 1-419): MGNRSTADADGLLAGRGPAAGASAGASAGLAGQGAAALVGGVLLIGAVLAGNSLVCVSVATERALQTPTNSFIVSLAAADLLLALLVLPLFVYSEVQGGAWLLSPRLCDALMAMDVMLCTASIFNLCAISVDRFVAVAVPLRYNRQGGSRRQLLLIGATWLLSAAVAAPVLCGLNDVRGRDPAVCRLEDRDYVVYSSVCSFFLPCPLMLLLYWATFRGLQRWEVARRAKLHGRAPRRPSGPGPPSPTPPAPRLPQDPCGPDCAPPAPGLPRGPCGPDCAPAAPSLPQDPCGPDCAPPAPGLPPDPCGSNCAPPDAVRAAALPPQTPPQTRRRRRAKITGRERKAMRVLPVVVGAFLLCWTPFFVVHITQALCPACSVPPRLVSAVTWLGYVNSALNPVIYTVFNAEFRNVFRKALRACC

human D4R [3] = molecular target: T3, human D4R; assay: [3H]N-methylspiperone radioligand competition binding, hD4R membranes
human D4R [4] = molecular target: T3, human D4R
[5] = antagonist mode, EC80 dopamine (1 μM), normalized to spiperone

## Cc1cccc(-n2cc(CN3CCN(c4cccc5ccccc45)CC3)nn2)c1 [Compound 18, 1-(Naphthalen-1-yl)-4-((1-(m-tolyl)-1H-1,2,3-triazol-4-yl)methyl)piperazine]
[1]; Sprague-Dawley, brain and plasma, ip, 10 mg/kg, AUC brain/plasma, read-out: brain: Plasma ratio
  Kp: > 2.6
[1]; Sprague-Dawley, brain, ip, 10 mg/kg, brain, read-out: half-life (h) brain (converted)
  half-life: 2.46 h
[1]; Sprague-Dawley, plasma, ip, 10 mg/kg, plasma, read-out: half-life (h) plasma (converted)
  half-life: 2.54 h
[1]; Sprague-Dawley, plasma, ip, 10 mg/kg, tissue not specified, read-out: half-life (converted)
  half-life: ~2.5 h
[1]; Sprague-Dawley, brain, read-out: Tmax (h) brain
  Tmax: 0.5 h
[1]; Sprague-Dawley, plasma
  AUC: 1.36 ± 0.29 µM·h
  Cmax: 700 ± 90 nM
[1]; Sprague-Dawley, plasma, read-out: Tmax (h) plasma
  Tmax: 0.5 h
[1]; AUC brain/plasma, 10 mg/kg
  brain: Plasma ratio: 2.63
[1]; brain
  AUC brain: 3.57 ± 0.77 nmol·h/g
  Cmax brain: 2.08 ± 0.20 nmol/g
[1]; from brain Cmax
  peak in vivo brain concentrations expected: greater than 2.0 μM
D1
  Ki: 783 nM
D1; 10 µM compound
  inhibition at 10 µM: 59.3%
D5
  inhibition at 10 µM: 25.7%
Human D2LR
  Ki: 6.54 ± 5.37 µM
Human D3R
  Ki: 10.8 µM
Human D2R long isoform
  IC50: 4.7 ± 1.1 µM
Human D2R long isoform; [5]
  D2R Ant (%): 87.8 ± 26.7%
Human D4R [2]
  EC50: > 10 µM
  IC50: 3.6 ± 1.1 µM
Human D4R [2]; agonist mode, at 10 μM (Emax ND)
  D4R average activity at the highest tested dose: ND (8% at 10 μM)
Human D4R [2]; [5]
  D4R Ant. (%): 92.1 ± 12.1%
Human D4R [3]
  Ki: 0.00433 ± 0.00102 µM
Human D4R [3]; ratio of Ki values
  Selectivity D2R/D4R: 1510
  Selectivity D3R/D4R: 2504
Human D4R [4]
  EC50: 2.14 ± 1.07 µM
  IC50: 0.904 ± 0.102 µM
Human D4R [4]; cAMP, antagonist mode, 10 μM forskolin and 10 nM dopamine, normalized to spiperone
  D4R Ant. (%): 72 ± 5%
Human D4R [4]; read-out: D4R Emax (%)
  Emax: 24 ± 7%
